Reference: ChEMBL document CHEMBL5506040, “Design of FK866-Based Degraders for Blocking the Nonenzymatic Functions of Nicotinamide Phosphoribosyltransferase” (J Med Chem, 2024)
pIC50: −log10 of the molar value. Active and inactive are the calls of the source. The rule behind the calls is not given here.

Key:
[1] = system: MIA PaCa-2; assay: cells; conditions: Homo sapiens, MIA PaCa-2, 72 h
Description: Cytotoxicity against human MIA PaCa-2 cells assessed as inhibition of cell growth incubated for 72 hrs by MTT assay

[2] = system: SK-OV-3; assay: cells; conditions: Homo sapiens, SK-OV-3, 72 h
Description: Cytotoxicity against human SK-OV-3 cells assessed as inhibition of cell growth incubated for 72 hrs by MTT assay

[3] = biological target: T1, Protein cereblon/Nicotinamide phosphoribosyltransferase (Homo sapiens) (UniProt P43490+Q96SW2); assay: PROTAC activity at CRBN/NAMPT in human SK-OV-3 cells assessed as induction of intracellular NAMPT degradation at 0.5 uM incubated for 24 hrs by Western blot analysis relative to control; format: cell-based
[4] = biological target: T1, Protein cereblon/Nicotinamide phosphoribosyltransferase (Homo sapiens); assay: PROTAC activity at CRBN/NAMPT in human SK-OV-3 cells assessed as induction of intracellular NAMPT degradation at 5 uM incubated for 24 hrs by Western blot analysis relative to control; format: cell-based
[5] = biological target: T1, Protein cereblon/Nicotinamide phosphoribosyltransferase (Homo sapiens); assay: PROTAC activity at CRBN/NAMPT in human SK-OV-3 cells assessed as induction of intracellular NAMPT degradation at 0.5 to 5 uM incubated for 24 hrs by Western blot analysis; format: cell-based; conditions: dose 0.5-5 µM

T1 sequence (P43490 whole entry, looked up): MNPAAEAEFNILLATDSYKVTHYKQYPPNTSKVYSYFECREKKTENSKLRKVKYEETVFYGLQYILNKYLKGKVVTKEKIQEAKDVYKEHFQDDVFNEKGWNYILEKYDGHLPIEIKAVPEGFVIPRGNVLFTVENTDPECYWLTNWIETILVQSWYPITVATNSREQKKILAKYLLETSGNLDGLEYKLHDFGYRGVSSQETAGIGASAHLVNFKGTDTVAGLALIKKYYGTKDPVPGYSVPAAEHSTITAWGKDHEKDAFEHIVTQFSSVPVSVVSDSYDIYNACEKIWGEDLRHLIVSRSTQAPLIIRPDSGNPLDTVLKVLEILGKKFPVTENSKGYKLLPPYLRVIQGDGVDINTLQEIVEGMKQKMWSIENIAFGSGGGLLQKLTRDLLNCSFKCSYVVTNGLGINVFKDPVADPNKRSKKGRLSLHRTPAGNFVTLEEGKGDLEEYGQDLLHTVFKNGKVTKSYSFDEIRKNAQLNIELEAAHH
T1 sequence (Q96SW2 whole entry, looked up): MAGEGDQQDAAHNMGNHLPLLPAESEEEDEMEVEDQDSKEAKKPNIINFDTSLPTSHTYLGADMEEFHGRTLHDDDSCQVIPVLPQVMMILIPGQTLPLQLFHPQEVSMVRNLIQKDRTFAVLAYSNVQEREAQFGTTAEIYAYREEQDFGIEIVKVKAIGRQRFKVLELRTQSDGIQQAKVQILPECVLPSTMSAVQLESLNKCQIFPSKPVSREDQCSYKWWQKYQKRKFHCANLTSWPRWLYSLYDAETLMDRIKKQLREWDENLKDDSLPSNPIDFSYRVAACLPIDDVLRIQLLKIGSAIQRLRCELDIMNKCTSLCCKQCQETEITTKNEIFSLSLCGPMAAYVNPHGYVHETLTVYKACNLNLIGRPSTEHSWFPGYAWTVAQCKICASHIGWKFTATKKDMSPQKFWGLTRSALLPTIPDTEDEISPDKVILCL

Compound | pIC50 [1] | pIC50 [2] | Activity [3] | Activity [4] | Activity [5]
O=C(/C=C/c1cccnc1)NCCCCC1CCN(C(=O)c2ccc(NC(=O)COCCOCCOCCOCCNc3cccc4c3C(=O)N(C3CCC(=O)NC3=O)C4=O)cc2)CC1 (configuration not stated) | 8.40 | 8.40 | 0% | 0% | 
O=C(/C=C/c1cccnc1)NCCCCC1CCN(C(=O)c2ccc(C(=O)NCc3cn(CCOCCOCCOCCNc4cccc5c4C(=O)N(C4CCC(=O)NC4=O)C5=O)nn3)cc2)CC1 (configuration not stated) | 8.40 | 8.40 | 34% | 20% | 
O=C(/C=C/c1cccnc1)NCCCCC1CCN(C(=O)c2ccc(C(=O)N3CCN(Cc4ccc(CNc5cccc6c5C(=O)N(C5CCC(=O)NC5=O)C6=O)cc4)CC3)cc2)CC1 (configuration not stated) | 8.40 | 8.40 |  |  | inactive
O=C(/C=C/c1cccnc1)NCCCCC1CCN(C(=O)c2ccc(C(=O)N3CCN(c4cccc5c4C(=O)N(C4CCC(=O)NC4=O)C5=O)CC3)cc2)CC1 (configuration not stated) | 8.40 | 8.40 |  |  | inactive
O=C(/C=C/c1cccnc1)NCCCCC1CCN(C(=O)c2ccc(C(=O)N3CCC4(CC3)CN(c3cccc5c3C(=O)N(C3CCC(=O)NC3=O)C5=O)C4)cc2)CC1 (configuration not stated) | 8.40 | 8.40 |  |  | inactive
O=C(/C=C/c1cccnc1)NCCCCC1CCN(C(=O)c2ccc(NC(=O)CN3CCN(c4cccc5c4C(=O)N(C4CCC(=O)NC4=O)C5=O)CC3)cc2)CC1 (configuration not stated) | 8.40 | 8.40 |  |  | inactive
O=C(/C=C/c1cccnc1)NCCCCC1CCN(C(=O)c2ccc(C(=O)NCc3cn(CCOCCOCCNc4cccc5c4C(=O)N(C4CCC(=O)NC4=O)C5=O)nn3)cc2)CC1 (configuration not stated) | 8.40 | 8.40 | 0% | 0% | 
O=C(/C=C/c1cccnc1)NCCCCC1CCN(C(=O)c2ccc(C(=O)N3CCC4(CCN(c5cccc6c5C(=O)N(C5CCC(=O)NC5=O)C6=O)C4)C3)cc2)CC1 (configuration not stated) | 8.40 | 8.40 |  |  | inactive
O=C(/C=C/c1cccnc1)NCCCCC1CCN(C(=O)c2ccc(C(=O)N3CCC(C(=O)N4CCN(c5cccc6c5C(=O)N(C5CCC(=O)NC5=O)C6=O)CC4)CC3)cc2)CC1 (configuration not stated) | 8.40 | 8.40 |  |  | inactive
O=C(/C=C/c1cccnc1)NCCCCC1CCN(C(=O)c2ccc(NC(=O)COCCOCCNc3cccc4c3C(=O)N(C3CCC(=O)NC3=O)C4=O)cc2)CC1 (configuration not stated) | 8.40 | 8.40 | 0% | 0% | 
O=C(/C=C/c1cccnc1)NCCCCC1CCN(C(=O)c2ccc(C(=O)N3CCC4(CC3)CC(C(=O)N3CCN(c5cccc6c5C(=O)N(C5CCC(=O)NC5=O)C6=O)CC3)C4)cc2)CC1 (configuration not stated) | 8.40 | 8.40 |  |  | inactive
O=C(/C=C/c1cccnc1)NCCCCC1CCN(C(=O)c2ccc(NC(=O)CCOCCOCCOCCOCCNc3cccc4c3C(=O)N(C3CCC(=O)NC3=O)C4=O)cc2)CC1 (configuration not stated) | 8.40 | 8.40 | 0% | 0% | 
O=C(/C=C/c1cccnc1)NCCCCC1CCN(C(=O)c2ccc(NC(=O)CCCN3CCN(c4cccc5c4C(=O)N(C4CCC(=O)NC4=O)C5=O)CC3)cc2)CC1 (configuration not stated) | 8.40 | 8.40 |  |  | inactive
O=C(/C=C/c1cccnc1)NCCCCC1CCN(C(=O)c2ccc(C(=O)NCCCCCCNc3cccc4c3C(=O)N(C3CCC(=O)NC3=O)C4=O)cc2)CC1 (configuration not stated) | 8.40 | 8.40 | 0% | 0% | 
O=C(/C=C/c1cccnc1)NCCCCC1CCN(C(=O)c2ccc(NC(=O)c3ccc(CN4CCN(c5cccc6c5C(=O)N(C5CCC(=O)NC5=O)C6=O)CC4)cc3)cc2)CC1 (configuration not stated) | 8.40 | 8.40 |  |  | inactive
O=C(/C=C/c1cccnc1)NCCCCC1CCN(C(=O)c2ccc(C(=O)N3CCC4(C3)CN(c3cccc5c3C(=O)N(C3CCC(=O)NC3=O)C5=O)C4)cc2)CC1 (configuration not stated) | 8.40 | 8.40 |  |  | inactive
O=C(/C=C/c1cccnc1)NCCCCC1CCN(C(=O)c2ccc(C(=O)NCCNc3cccc4c3C(=O)N(C3CCC(=O)NC3=O)C4=O)cc2)CC1 (configuration not stated) | 8.40 | 8.40 | 0% | 11% | 
O=C(/C=C/c1cccnc1)NCCCCC1CCN(C(=O)c2ccc(C(=O)N3CC4(CCN(c5cccc6c5C(=O)N(C5CCC(=O)NC5=O)C6=O)CC4)C3)cc2)CC1 (configuration not stated) | 8.40 | 8.40 |  |  | inactive
O=C(/C=C/c1cccnc1)NCCCCC1CCN(C(=O)c2ccc(NC(=O)CCCCN3CCN(c4cccc5c4C(=O)N(C4CCC(=O)NC4=O)C5=O)CC3)cc2)CC1 (configuration not stated) | 8.40 | 8.40 |  |  | inactive
O=C(/C=C/c1cccnc1)NCCCCC1CCN(C(=O)c2ccc(C(=O)NCCCCCc3cccc4c3CN(C3CCC(=O)NC3=O)C4=O)cc2)CC1 (configuration not stated) | 8.40 | 8.40 | 0% | 0% | 
O=C(/C=C/c1cccnc1)NCCCCC1CCN(C(=O)c2ccc(C(=O)NCCCCCNc3cccc4c3C(=O)N(C3CCC(=O)NC3=O)C4=O)cc2)CC1 (configuration not stated) | 8.40 | 8.40 | 0% | 0% | 
O=C(/C=C/c1cccnc1)NCCCCC1CCN(C(=O)c2ccc(C(=O)NCCCCNc3cccc4c3C(=O)N(C3CCC(=O)NC3=O)C4=O)cc2)CC1 (configuration not stated) | 8.40 | 8.40 | 0% | 22% | 
O=C(/C=C/c1cccnc1)NCCCCC1CCN(C(=O)c2ccc(NC(=O)COCCOCCOCCNc3cccc4c3C(=O)N(C3CCC(=O)NC3=O)C4=O)cc2)CC1 (configuration not stated) | 8.40 | 8.40 | 0% | 0% | 
O=C(/C=C/c1cccnc1)NCCCCC1CCN(C(=O)c2ccc(C(=O)NCc3cn(CCOCCNc4cccc5c4C(=O)N(C4CCC(=O)NC4=O)C5=O)nn3)cc2)CC1 (configuration not stated) | 8.40 | 8.40 | 25% | 30% | 
O=C(/C=C/c1cccnc1)NCCCCC1CCN(C(=O)c2ccc(C(=O)N3CCC(C(=O)Nc4cccc5c4C(=O)N(C4CCC(=O)NC4=O)C5=O)CC3)cc2)CC1 (configuration not stated) | 8.40 | 8.40 |  |  | inactive
O=C(/C=C/c1cccnc1)NCCCCC1CCN(C(=O)c2ccc(C(=O)N3CCC(CC(=O)Nc4cccc5c4C(=O)N(C4CCC(=O)NC4=O)C5=O)CC3)cc2)CC1 (configuration not stated) | 8.40 | 8.40 |  |  | inactive
O=C(/C=C/c1cccnc1)NCCCCC1CCN(C(=O)c2ccc(C(=O)NCCCNc3cccc4c3C(=O)N(C3CCC(=O)NC3=O)C4=O)cc2)CC1 (configuration not stated) | 8.40 | 8.40 | 29% | 0% | 
O=C(/C=C/c1cccnc1)NCCCCC1CCN(C(=O)c2ccc(C(=O)NCc3cn(CCOCCOCCOCCOCCOCCNc4cccc5c4C(=O)N(C4CCC(=O)NC4=O)C5=O)nn3)cc2)CC1 (configuration not stated) | 8.40 | 8.40 | 51% | 52% | 
O=C(/C=C/c1cccnc1)NCCCCC1CCN(C(=O)c2ccc(C(=O)NCc3cn(CCOCCOCCOCCOCCNc4cccc5c4C(=O)N(C4CCC(=O)NC4=O)C5=O)nn3)cc2)CC1 (configuration not stated) | 8.40 | 8.40 | 40% | 27% | 
